We go through 10 molecules from ChEMBL document CHEMBL1201862, “PubChem BioAssay data set” (2004).

The structures appear in SMILES notation.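 Five compound concentrations were applied to cells in 96-well plates for 48 hours; endpoints were derived by simple linear interpolation of the resulting dose-response curve. At the GI50, growth is halved.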 Activity calls are given as the source filed them. Rule as the data show it: active = GI50 up to about 1.1 µM and inactive = higher.

Among the test systems are OVCAR-4; 786-0; SK-MEL-5; NCI-H226; COLO 205; HOP-62; A498; A549; SK-OV-3; HT-29; HL-60; ACHN; IGROV-1; TK-10; SNB-75; HCT-15; HCC 2998.
Holding throughout (assay): growth of human tumour cells (NCI), 48 h

As for `Cc1nc2cc(N)c(F)cc2[nH]1`, the GI50 in the test with OVCAR-4, with 786-0, in the test with SK-MEL-5, in the test with NCI-H226, in the test with COLO 205 and with HOP-62 was > 100 µM (inactive) throughout. The GI50 in the test with A498, in the test on A549, in the test with SK-OV-3, in the test on HT-29, in the test on HL-60 and with ACHN was > 100 µM (inactive) throughout. The GI50 in the test with IGROV-1 and in the test on TK-10 was > 100 µM (inactive) each time.

In the case of `CCCC(=O)C(CC)/C(CCC(=O)N(Cc1ccccc1)Cc1ccccc1)=N/NC(=O)C[N+](C)(C)C` (stereo not given), the GI50 in the test on SNB-75, with OVCAR-4, in the test on 786-0, in the test with SK-MEL-5, in the test on NCI-H226 and with COLO 205 was > 100 µM (inactive) in each case. Further, the GI50 in the test on HOP-62, in the test with A498, in the test on A549, with SK-OV-3, with HT-29 and in the test with HL-60 was > 100 µM (inactive) each time. For the same molecule, the GI50 with ACHN and with IGROV-1 was > 100 µM (inactive) throughout.

In the case of `CC(C)=CC(=O)CC(=O)C(=O)NCCNC(=O)C(=O)CC(=O)C=C(C)C`, the GI50 in the test on SNB-75, with OVCAR-4, in the test with 786-0, with NCI-H226, in the test with COLO 205 and in the test on HOP-62 was > 50 µM (inactive) each time. In addition, the GI50 with A498 is > 50 µM (inactive); in the test on A549, > 50 µM (inactive); with SK-OV-3 it was > 50 µM (inactive); in the test with HCT-15, above 50 µM; with HT-29 it was > 50 µM (inactive); in the test on HCC 2998, > 50 µM (inactive). Also, the GI50 in the test on ACHN, in the test with IGROV-1 and in the test with TK-10 was > 50 µM (inactive) throughout.

Turning to `COC(=O)c1nn(-c2ccccc2)c(=O)cc1N=[N+]=[N-]`, the GI50 is > 100 µM (inactive) with OVCAR-4; > 100 µM (inactive) in the test with 786-0; > 100 µM (inactive) in the test with SK-MEL-5; > 100 µM (inactive) in the test on NCI-H226; 99.5 µM (inactive) in the test on COLO 205; > 100 µM (inactive) with HOP-62. In addition, the GI50 is 94 µM (inactive) in the test on A498; > 100 µM (inactive) in the test on A549; > 100 µM (inactive) in the test with SK-OV-3; above 100 µM with HCT-15; > 100 µM (inactive) in the test on HT-29; > 100 µM (inactive) in the test on HL-60. In addition, the GI50 in the test with HCC 2998, in the test on ACHN, in the test on IGROV-1 and in the test with TK-10 was > 100 µM (inactive) each time.

Consider `O=C1NC2=C(CCCCC/C2=N\O)C12CCCCCC2`, for which the GI50 with SNB-75, in the test with OVCAR-4, in the test on 786-0, in the test on SK-MEL-5, with COLO 205 and in the test with HOP-62 was > 100 µM (inactive) each time. The GI50 was > 100 µM (inactive) in the test with A498; > 100 µM (inactive) with A549; > 100 µM (inactive) with SK-OV-3; above 100 µM in the test on HCT-15; > 100 µM (inactive) in the test on HT-29; > 100 µM (inactive) in the test on HL-60. The GI50 in the test with ACHN, with IGROV-1 and in the test with TK-10 was > 100 µM (inactive) throughout.

With `C/C(=C1/CCCC2(N=NCC2c2ccccc2)C1=O)c1ccccc1` (stereo not given), the GI50 in the test with SNB-75 was 30.3 µM (inactive); in the test on OVCAR-4, 30.7 µM (inactive); with 786-0, 46.7 µM (inactive); with SK-MEL-5 it was 12.7 µM (inactive); in the test with NCI-H226 it was 16 µM (inactive); in the test on COLO 205 it was 16.5 µM (inactive). The GI50 is 20.4 µM (inactive) in the test on A549; 30.7 µM (inactive) in the test on SK-OV-3; 35.1 µM in the test on HCT-15; 20.5 µM (inactive) with HT-29; 8.95 µM (inactive) in the test on HL-60; 38.2 µM (inactive) in the test with HCC 2998. The GI50 was 31.8 µM (inactive) in the test with ACHN, 42.4 µM (inactive) in the test with IGROV-1 and 42.7 µM (inactive) in the test on TK-10.

Turning to `Cc1ccccc1Cn1nc2ccccc2cc1=O`, the GI50 in the test on SNB-75 was 22.1 µM (inactive); in the test with OVCAR-4, > 100 µM (inactive); in the test on 786-0, > 100 µM (inactive); with SK-MEL-5, > 100 µM (inactive); with NCI-H226, > 100 µM (inactive); with COLO 205, > 100 µM (inactive). Besides, the GI50 is > 100 µM (inactive) in the test on HOP-62; > 100 µM (inactive) in the test on A498; > 100 µM (inactive) in the test with A549; > 100 µM (inactive) in the test with SK-OV-3; above 100 µM with HCT-15; > 100 µM (inactive) in the test on HT-29. Also, the GI50 in the test on HCC 2998, in the test with ACHN, with IGROV-1 and in the test with TK-10 was > 100 µM (inactive) in each case.

Take `OCCSCC/C(=N\N=C(/CCSCCO)c1ccccc1)c1ccccc1`: the GI50 was 61.4 µM (inactive) in the test on OVCAR-4; 46.2 µM (inactive) with 786-0; 88.7 µM (inactive) with SK-MEL-5; > 100 µM (inactive) with NCI-H226; > 100 µM (inactive) with COLO 205; > 100 µM (inactive) with HOP-62. Also, the GI50 in the test with A549 is > 100 µM (inactive); in the test on SK-OV-3, > 100 µM (inactive); in the test with HCT-15, above 100 µM; in the test with HT-29 it was 52 µM (inactive); with HL-60 it was 88.5 µM (inactive); in the test on HCC 2998, > 100 µM (inactive). Also, the GI50 is 74.5 µM (inactive) in the test on ACHN, > 100 µM (inactive) in the test on IGROV-1 and > 100 µM (inactive) in the test on TK-10.

Turning to `CC(C)C(=O)N[C@@H](C)C(=O)N(Cc1ccc2ccccc2c1)N=O`, the GI50 with SNB-75 was > 100 µM (inactive); in the test with OVCAR-4, 54.7 µM (inactive); in the test on 786-0, > 100 µM (inactive); with SK-MEL-5, > 100 µM (inactive); with COLO 205, > 100 µM (inactive); in the test with HOP-62, > 100 µM (inactive). Further, the GI50 in the test with A498 was 58.2 µM (inactive); with A549, 82.4 µM (inactive); in the test with SK-OV-3 it was > 100 µM (inactive); in the test on HCT-15, 77.4 µM; with HT-29, > 100 µM (inactive); with HCC 2998 it was > 100 µM (inactive). The GI50 with ACHN was > 100 µM (inactive); in the test with IGROV-1, 95.9 µM (inactive); in the test with TK-10, > 100 µM (inactive).

`CC(C)NC(C)C(C)c1ccccc1` (stereo not given): the GI50 in the test on SNB-75, in the test with OVCAR-4, in the test with 786-0, in the test with SK-MEL-5, with NCI-H226 and in the test on COLO 205 was > 100 µM (inactive) in each case. The GI50 in the test on HOP-62, in the test with A498, with A549, with SK-OV-3, with HT-29 and in the test with HCC 2998 was > 100 µM (inactive) in each case. Further, the GI50 in the test with ACHN, with IGROV-1 and in the test with TK-10 was > 100 µM (inactive) each time.
